Test results reported in patent US9334286B2, “Pharmacologically active compounds” (Cancer Research Technology Limited, priority 2012, dated 2016).

Target: full length MPS1 (Homo sapiens (Human), UniProt P33981)
Assay: Measurement of inhibition of MPS1 kinase (Caliper EZ reader, fluorescent labelled peptide H236)
Assay type: biochemical
Conditions: full length MPS1 12.5 nM or 3 nM, peptide H236 5 μM, ATP 10 μM, 60 min at room temperature

Sequence of full length MPS1 (P33981 whole entry): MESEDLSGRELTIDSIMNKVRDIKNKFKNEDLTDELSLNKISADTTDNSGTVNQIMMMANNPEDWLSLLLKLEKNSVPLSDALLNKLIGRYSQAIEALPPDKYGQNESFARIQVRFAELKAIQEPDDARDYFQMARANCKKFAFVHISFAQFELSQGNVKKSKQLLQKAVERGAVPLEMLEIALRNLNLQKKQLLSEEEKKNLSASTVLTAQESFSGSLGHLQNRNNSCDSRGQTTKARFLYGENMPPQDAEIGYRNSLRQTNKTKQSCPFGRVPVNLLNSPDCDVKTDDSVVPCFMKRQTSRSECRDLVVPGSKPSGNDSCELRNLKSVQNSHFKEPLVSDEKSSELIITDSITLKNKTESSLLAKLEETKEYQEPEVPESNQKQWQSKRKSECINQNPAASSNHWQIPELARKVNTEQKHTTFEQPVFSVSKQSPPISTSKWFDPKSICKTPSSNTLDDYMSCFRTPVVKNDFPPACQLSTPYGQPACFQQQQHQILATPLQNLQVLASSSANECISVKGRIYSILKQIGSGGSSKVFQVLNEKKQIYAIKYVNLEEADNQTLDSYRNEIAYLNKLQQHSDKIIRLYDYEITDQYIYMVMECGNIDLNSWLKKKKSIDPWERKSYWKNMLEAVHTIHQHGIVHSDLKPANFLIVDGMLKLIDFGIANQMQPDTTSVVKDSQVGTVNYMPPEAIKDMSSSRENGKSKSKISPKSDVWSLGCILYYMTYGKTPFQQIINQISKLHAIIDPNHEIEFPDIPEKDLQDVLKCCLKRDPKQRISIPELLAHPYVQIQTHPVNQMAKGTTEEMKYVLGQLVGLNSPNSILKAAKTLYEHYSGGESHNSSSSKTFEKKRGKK

Row | IC50 [nM] | SMILES
1 | 1 | COc1cc(-c2ncnn2C)ccc1Nc1cc2cc(-c3cnn(CC(C)(C)O)c3)ccc2cn1 [Example 64, 1-(4-(3-((2-Methoxy-4-(1-methyl-1H-1,2,4-triazol-5-yl)phenyl)amino)isoquinolin-6-yl)-1H-pyrazol-1-yl)-2-methylpropan-2-ol]
2 | 2 | COc1cc(C(=O)N2CCS(=O)(=O)CC2)ccc1Nc1cc2cc(-c3cnn(CC(C)(C)O)c3)ccc2cn1 [Example 65, (1,1-Dioxidothiomorpholino)(4-((6-(1-(2-hydroxy-2-methylpropyl)-1H-pyrazol-4-yl)isoquinolin-3-yl)amino)-3-methoxyphenyl)methanone]
3 | 2 | COc1cc(C(=O)N2CCN(C)CC2)ccc1Nc1cc2cc(-c3cnn(CC(C)(C)O)c3)ccc2cn1 [Example 66]
4 | 5 | COc1cc(C(=O)NC2CCN(C)CC2)ccc1Nc1cc2cc(-c3cnn(CC(C)(C)O)c3)ccc2cn1 [Example 67, 4-((6-(1-(2-Hydroxy-2-methylpropyl)-1H-pyrazol-4-yl)isoquinolin-3-yl)amino)-3-methoxy-N-(1-methylpiperidin-4-yl)benzamide]
5 | 2 | COc1cc(-c2cnc(C)n2CC(C)(C)O)ccc1Nc1cc2cc(-c3cnn(CC(C)(C)O)c3)ccc2cn1 [Example 69, 1-(5-(4-((6-(1-(2-Hydroxy-2-methylpropyl)-1H-pyrazol-4-yl)isoquinolin-3-yl)amino)-3-methoxy-phenyl)-2-methyl-1H-imidazol-1-yl)-2-methylpropan-2-ol]
6 | 3 | COCCn1cc(-c2ccc3cnc(Nc4ccc(C(=O)N5CC(OC)C5)cc4OC)cc3c2)cn1 [Example 72, (3-Methoxy-4-((6-(1-(2-methoxyethyl)-1H-pyrazol-4-yl)isoquinolin-3-yl)amino)phenyl)(3-methoxyazetidin-1-yl)methanone]
7 | 3 | COc1cc(C(=O)N2CC(OC)C2)ccc1Nc1cc2cc(-c3cnn(CC(C)(C)OC)c3)ccc2cn1 [Example 74, (3-Methoxy-4-((6-(1-(2-methoxy-2-rnethylpropyl)-1H-pyrazol-4-yl)isoquinolin-3-yl)amino)-phenyl)(3-methoxyazetidin-1-yl)methanone]
8 | 23 | Cc1nnc(-c2ccc(Nc3cc4cc(-c5cnn(CC(C)(C)O)c5)ccc4cn3)c(Cl)c2)o1 [Example 77, 1-(4-(3-((2-Chloro-4-(5-methyl-1,3,4-oxadiazol-2-yl)phenyl)amino)isoquinolin-6-yl)-1H-pyrazol-1-yl)-2-methylpropan-2-ol]
9 | 3 | COc1cc(S(=O)(=O)N(C)C)ccc1Nc1cc2cc(-c3cnn(CC(C)(C)O)c3)ccc2cn1 [Example 80, 4-((6-(1-(2-Hydroxy-2-methylpropyl)-1H-pyrazol-4-yl)isoquinolin-3-yl)amino)-3-methoxy-N,N-dimethylbenzenesulfonamide]
10 | 5 | COc1cc(-c2cnc(C#N)n2C)ccc1Nc1cc2cc(-c3cnn(CC(C)(C)O)c3)ccc2cn1 [Example 84, 5-(4-((6-(1-(2-Hydroxy-2-methylpropyl)-1H-pyrazol-4-yl)isoquinolin-3-yl)amino)-3-methoxyphenyl)-1-methyl-1H-imidazole-2-carbonitrile]
11 | 7 | COCC1CN(C(=O)c2ccc(Nc3cc4cc(-c5cnn(CC(C)(C)O)c5)ccc4cn3)c(OC)c2)C1 [Example 86, (4-((6-(1-(2-Hydroxy-2-methylpropyl)-1H-pyrazol-4-yl)isoquinolin-3-yl)amino)-3-methoxy-phenyl)(3-(methoxymethyl)azetidin-1-yl)methanone]
12 | 8 | COc1cc(C(=O)N2CC(OC)C2)ccc1Nc1cc2cc(-c3cnn(CC4(O)CCC4)c3)ccc2cn1 [Example 87, (4-((6-(1-((1-Hydroxycyclobutyl)methyl)-1H-pyrazol-4-yl)isoquinolin-3-yl)amino)-3-methoxy-phenyl)(3-methoxyazetidin-1-yl)methanone]
13 | 7 | CCOc1cc(-c2nncn2C)ccc1Nc1cc2cc(-c3cnn(CC4(O)CCC4)c3)ccc2cn1 [Example 88, 1-((4-(3-((2-Ethoxy-4-(4-methyl-4H-1,2,4-triazol-3-yl)phenyl)amino)isoquinolin-6-yl)-1H-pyrazol-1-yl)methyl)cyclobutanol]
14 | 472 | COc1cc(-c2cnc(C)n2C)ccc1Nc1cc2cc(C(=O)N(C)C)ccc2cn1 [Example 89, 3-((4-(1,2-Dimethyl-1H-imidazol-5-yl)-2-methoxyphenyl)amino)-N,N-dimethylisoquinoline-6-carboxamideone]
15 | 5 | CNC(=O)c1ccc2cnc(Nc3ccc(-c4cnc(C)n4C)cc3OC)cc2c1 [Example 90, 3-((4-(1,2-Dimethyl-1H-imidazol-5-yl)-2-methoxyphenyl)amino)-N-methylisoquinoline-6-carboxamide]
16 | 2 | COC1CN(C(=O)c2ccc(Nc3cc4cc(-c5cnn(CC(C)(C)O)c5)ccc4cn3)c(OC(F)F)c2)C1 [Example 91, (3-(Difluoromethoxy)-4-(6-(1-(2-hydroxy-2-methylpropyl)-1H-pyrazol-4-yl)isoquinolin-3-ylamino)phenyl)(3-methoxyazetidin-1-yl)methanone]
17 | 2 | CCOc1cc(C(=O)N2CC(OC)C2)ccc1Nc1cc2cc(-c3cnn(CC(C)(C)O)c3)ccc2cn1 [Example 92, (3-Ethoxy-4-(6-(1-(2-hydroxy-2-methylpropyl)-1H-pyrazol-4-yl)isoquinolin-3-ylamino)phenyl)(3-methoxyazetidin-1-yl)methanone]
18 | 5 | COc1cc(C(=O)N2CC(F)(F)C2)ccc1Nc1cc2cc(-c3cnn(CC(C)(C)O)c3)ccc2cn1 [Example 93, (3,3-Difluoroazetidin-1-yl)(4-(6-(1-(2-hydroxy-2-methylpropyl)-1H-pyrazol-4-yl)isoquinolin-3-ylamino)-3-methoxyphenyl)methanone]
19 | 2 | COc1cc(C(=O)N2CCC(C#N)CC2)ccc1Nc1cc2cc(-c3cnn(CC(C)(C)O)c3)ccc2cn1 [Example 94, 1-(4-(6-(1-(2-Hydroxy-2-methylpropyl)-1H-pyrazol-4-yl)isoquinolin-3-ylamino)-3-methoxybenzoyl)piperidine-4-carbonitrile]
20 | 1 | COc1cc(C(=O)N2CC3(CCOC3)C2)ccc1Nc1cc2cc(-c3cnn(CC(C)(C)O)c3)ccc2cn1 [Example 95, (4-(6-(1-(2-Hydroxy-2-methylpropyl)-1H-pyrazol-4-yl)isoquinolin-3-ylamino)-3-methoxyphenyl)(6-oxa-2-azaspiro[3,4]octan-2-yl)methanone]
21 | 2 | COc1cc(C(=O)N2CC(OC)C2)ccc1Nc1cc2cc(-c3cn(CC(C)(C)O)nn3)ccc2cn1 [Example 96, (4-(6-(1-(2-Hydroxy-2-methylpropyl)-1H-1,2,3-triazol-4-yl)isoquinolin-3-ylamino)-3-methoxyphenyl)(3-methoxyazetidin-1-yl)methanone]
22 | 9 | COc1cc(C(=O)N2CC(OC)C2)ccc1Nc1cc2cc(-c3cnn(CC(C)(C)O)n3)ccc2cn1 [Example 97, (4-(6-(2-(2-Hydroxy-2-methylpropyl)-2H-1,2,3-triazol-4-yl)isoquinolin-3-ylamino)-3-methoxyphenyl)(3-methoxyazetidin-1-yl)methanone]

Row | SMILES | IC50 [nM]
23 | COc1cc(-c2nnc3n2CCN(C)C3)ccc1Nc1cc2cc(-c3cnn(CC(C)(C)O)c3)ccc2cn1 [Example 70, 1-(4-(3-((2-Methoxy-4-(7-methyl-5,6,7,8-tetrahydro-[1,2,4]triazolo[4,3-a]pyrazin-3-yl)-phenyl)amino)isoquinolin-6-yl)-1H-pyrazol-1-yl)-2-methylpropan-2-ol] | 2
